Measured values: patent US9675549B2, “Tablet containing composite with cyclodextrin” (AMBIT BIOSCIENCES CORPORATION, priority 2012, dated 2017)

Test: Examination of molecular state of AC220 in aqueous solution (1H chemical shift displacements, NOESY)
Format: physicochemical
Procedure: The molecular state of AC220 in the aqueous solution was examined. […] The protons of d and e could not be analyzed due to the overlapping with other proton signals.
Furthermore, the Hill coefficient was calculated from the analysis of the ^1H chemical shift displacements: the value was greater than 1, and indicated a network formation. It was confirmed that the addition of methanol to the AC220 aqueous solution inhibited the gel formation, and that the network was formed by intermolecular hydrogen bonding.

With `CC(C)(C)c1cc(NC(=O)Nc2ccc(-c3cn4c(n3)sc3cc(OCCN5CCOCC5)ccc34)cc2)no1` [AC220, N-(5-tert-butyl-isoxazol-3-yl)-N′-{4-[7-(2-morpholin-4-yl-ethoxy)imidazo[2,1-b][1,3]benzothiazol-2-yl]phenyl}urea] the Hill coefficient (calculated from 1H chemical shift displacements of AC220 aqueous solutions, indicates network formation) was “greater than 1” and the Solubility in water (gelation of the aqueous solution with increasing concentration) was “soluble”.
